Data from article doi:10.1101/2025.03.14.643404, “A Bivalent Molecular Glue Linking Lysine Acetyltransferases to Oncogene-induced Cell Death” (bioRxiv, 2025).

Columns and labels:
[1] = system: SUDHL5^TRE−3xFLAG-MYC cells; assay: Viability of SUDHL5 TRE-3xFLAG-MYC cells, 72 h; type: cell-based; details: Homo sapiens
Description: Thirty thousand cells were seeded in 100 μl of media per well of a 96-well plate and treated with drug for the indicated times and doses. A resazurin-based indicator of cell health (PrestoBlue; P50200, Thermo Fisher) was added for 1.5 h at 37°C, at which point the fluorescence ratio at 560/590 nm was recorded (Tecan Spark). The background fluorescence was subtracted, and the signal was normalized to DMSO-treated cells. IC50 measurements on cell lines were calculated using at least three biological replicates (separate cell passages). Fit of dose–response curves to data and statistical analysis was performed using GraphPad PRISM using the four-parameter log(inhibitor) vs response function.
An N-terminal fusion of 3xFLAG followed by a GGSGS linker fused to the coding sequence of human c-MYC (NM_002467.6)) was subcloned into pCW57-MCS1–2A-MCS2 (a gift from Adam Karpf (Addgene plasmid 71782; http://n2t.net/addgene:71782; RRID:Addgene_71782)).
This construct is the same used for BCL6 nanoBRET studies above. Lentivirus was produced from HEK293T cells via polyethylenimine transfection. Briefly, cells were transfected using 2nd-generation packaging plasmids and media replaced after 24 hours. […]

[2] = system: BCL6-repressed GFP reporter; assay: BCL6 reporter assay (BCL6-repressed GFP) in K422 cells; type: cell-based, human; details: 24 h, highest GFP signal
Description: KARPAS422 cells were lentivirally transduced with a construct containing the reporter. Description of the reporter construct has been published previously. After selection, cells were plated and treated with indicated amount of compound for 24 hours. Cells were washed in 2.5% FBS/PBS, stained with 1:250 v/v of 7-AAD (BD 559925) to distinguish live from dead cells, and harvested for flow cytometry on a BD Accuri. Given the polyclonal population after transduction, the area under the curve of the histogram representing FITC signal across all live cells was calculated as an integrative measure of total GFP signal. A GFP-positive gate two standard deviations from the mean was drawn from non-transduced cells and the area past a constant threshold was calculated and normalized to the signal from cells treated with DMSO.

c-MYC protein = assay: Western blot of c-MYC protein in SUDHL5; type: cell-based, human
Description: Cells were plated at 1M/mL and treated with drug at indicated timepoints and doses. Cells were harvested on ice in RIPA buffer (50mM Tris-HCl pH 8, 150mM NaCl, 1% NP-40, 0.1% DOC, 1% SDS, protease inhibitor cocktail (~20 mg/ml pepstatin, aprotinin, and leupeptin), 1mM DTT) and 1:200 benzonase (Sigma E1014) was added and incubated for 20 mins. After 10 min centrifugation at 14,000g and 4 °C, the supernatant was collected and protein concentration was measured by Bradford. SDS-PAGE analysis was carried out in either 4–12% or 12% Bis-Tris PAGE gels (Thermo NW04120 and NW04127). Antibodies used for immunoblots were: BCL6 (1:1000 v:v, Cell Signaling D65C10), p300 (1:250, Santa Cruz F-4 sc-48343), CBP (1:1000, Cell Signaling D6C5), c-MYC (1:1000, Cell Signaling D84C12), Caspase-3 (1:1000, Cell Signaling 9662), GAPDH (1:2000, Santa Cruz 6C5 sc-32233), BBC3/PUMA (1:1000, Cell Signaling E2P7G), FOXO3 (1:1000, Cell Signaling 75D8), H3K27ac (1:1000, abcam ab4729), H2BK20ac (1:1000, Cell Signaling D709W), H3 (1:10,000, Cell Signaling 1B1B2), H2B (1:10,000, Cell Signaling D2H6), p27/CDKN1B (1:1000, Cell Signaling D69C12), and TP53 (1:1000, Santa Cruz DO-1). ImageStudio (Licor) was used for blot imaging and quantification.

K422 = assay: Cell viability, 7 days compound treatment (Cell Titer-Glo), K422; type: cell-based; details: Homo sapiens, 168 h; K422, 7 days; read-out: IC50 of antiproliferation
Description: Fifteen thousand cells were seeded in 100 μl of media per well of a U-bottom 96-well plate and treated with digitally dispensed drugs (Tecan D300e) for the indicated times and doses. After 96 hours, plates were centrifuged for 750 rpm for 3 minutes, and old media was exchanged for 100 μl of fresh media. Drug treatment was then repeated at the indicated doses. 72 hours following media change, cells were transferred to 96 well flat-bottom opaque plates. Viability was measured by adding 25 μL Cell Titer-Glo reagent (Promega G7570) to each well and luminescence was measured (BMG Labtech Pherastar FS). The background luminescence was subtracted, and the signal was normalized to DMSO-treated cells. IC50 measurements on cell lines were calculated using at least three biological replicates by separate cell passages. Fit of dose–response curves to data and statistical analysis was performed using GraphPad PRISM using the four-parameter log(inhibitor) vs response function.

In the case of `CNC(=O)COc1cc2cc(Nc3nc(N4CCC(C(=O)N5CCN(CCC(=O)N6CCC(n7nc(N8CCCc9cc(-c%10cnn(C)c%10)c(C(F)F)cc98)c8c7CCN(C(=O)NC)C8)CC6)CC5)CC4)ncc3Cl)cc(OC)c2n(C)c1=O` [TCIP3], the IC50 ([1]; SU-DHL-5, + dox (1 μg/mL doxycycline 24 h prior)) is reported as roughly 7.5 nM, the IC50 ([1]; SU-DHL-5, − dox) is reported as roughly 2 nM and the “GFP signal relative to DMSO treatment” value [2] is reported as 10 times. For the same compound, the “t1/2 of c-MYC protein decrease” value (c-MYC protein; SUDHL5, 1 nM) was 2.5 h, the IC50 (c-MYC protein; SUDHL5, 4 hours, read-out: IC50 of c-MYC protein repression) was roughly 0.8 nM and the IC50 (K422) was 4 nM.
